Experimental data as given in PMC3901259, “Characterisation of the Metabolites of 1,8-Cineole Transferred into Human Milk: Concentrations and Ratio of Enantiomers” (Metabolites, 2013).

Columns and labels:
[1] = set-up: method as in PMID 20425757; settings: one volunteer, sage tea, overall intake 1.02 mg 1,8-cineole; cited from earlier work
[2] = Determination of the ratios of enantiomers of chiral metabolites in human milk on chiral GC capillaries; format: in vivo
Method in brief: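 Milk extracts analysed by GC-MS on cyclodextrin chiral capillaries: Rt-bDEXsm for 2,3-dehydro-, α2,3-epoxy-, 2-oxo-, 3-oxo- and 9-hydroxy-1,8-cineole, Rt-yDEXsa for α2-, α3- and β2-hydroxy-1,8-cineole. Enantiomer ratio = each enantiomer's peak area over summed pair area ×100; absolute enantiomer concentrations from known metabolite concentrations.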

CC1(C)OC2(C)CCC1CC2O (stereo not drawn) [a2-hydroxy-1,8-cineole, α2-hydroxy-1,8-cineole]
Concentration in plasma [1]: 14.62 ng/mL
Enantiomeric ratio in human milk [2]: nearly enantiomerically pure
Percentage E1 in single sample (outlier) ([2]; human milk sample B-2a, excluded from Table 3): 40.5%
Percentage E1, range as described for boxplot ([2]; human milk samples, Figure 5): under 10%
